From US6667387B1, “HCV core peptides” (priority 1992, dated 2003)
Ends that are not written are not given here. * marks the point of attachment. Biotin = O=C1N[C@H]2[C@H](CS[C@H]2CCCCC(=O)*)N1

Tests used:
Type in all cases: binding, human
[1] = system: antibodies in antisera from HIV-1 infected persons; test: ELISA with HIV-1 antibody-positive sera (biotinylated peptides on streptavidin- or avidin-coated plates, unbiotinylated peptides coated directly)
Protocol: (§1) Where peptides were to be coated directly, stock solutions of the peptides were diluted in sodium carbonate buffer, pH 9.6 and used to coat polystyrene microtiter plates at a peptide concentration of 2 to 5 micrograms per milliliter for 1 hour at 37° C.
(§2) In cases where biotinylated peptides were to be evaluated, plates were first coated with streptavidin in sodium carbonate buffer, pH 9.6 at a concentration of 3 micrograms per milliliter for 1 hour at 37° C. The plates were then washed to remove excess, unbound protein. A working solution of the biotinylated peptide at 1 microgram per milliliter in sodium carbonate buffer was then added to the wells of the microtiter plate and incubated for 1 hours at 37° C.
(§3) Once the plates had been coated with antigen, any remaining free binding sites on the plastic were blocked with casein. After washing, a dilution of the appropriate antisera, usually 1:100, was added to the wells of the plates and incubated for 1 hour at 37° C.
(§4) After washing to remove unbound material, specific antibody binding was detected by incubating the plates with goat anti-human immunoglobulin antibodies conjugated to the enzyme horseradish peroxidase. Following removal of unbound conjugate by washing, a solution containing H2O2 and 3,3′,5,5′-tetramethylbenzidine was added.
(§5) Reactions were stopped after a suitable interval by addition of sulfuric acid. […] Absorbance measurements were made at a wavelength of 450 nanometers and all data are expressed as an optical density value at this wavelength.
Experiments were performed to evaluate antibody recognition of short, 10 amino acid-long, N-acetylated peptides corresponding to other contained within the transmembrane proteins of HIV-1 and HIV-2. […] The peptides used for the comparison were as follows:
Antibody binding to these peptides was compared to antibody binding to the unibiotinylated peptides which were coated directly onto microtiter plates.
In order to evaluate antibody recognition of these two peptides, the peptides were bound individually to streptavidin-coated microtiter plates and tested using a panel of antisera from HIV-1 seropositive donors.
(§6) To determine how well biotinylated peptides would function in a mixture when bound to streptavidin- or avidin-coated plates, two mixtures were made of the N-terminally biotinylated versions of the HIV-1 peptides TM-HIV-1 (hereabove referred to as 1a.1) and V3-nm (hereabove referred to as 1b.4), the HIV-2 peptide TM-HIV-2 (hereabove referred to as 2a), and the hepatitis C virus peptides II, IX, and XVIII. Mixture A contained each of the six biotinylated peptides at a concentration of 1 microgram per milliliter (6 micrograms per milliliter peptide, total) while in mixture B, each peptide was present at a concentration of 0.1 microgram per milliliter (0.6 microgram per milliliter peptide, total). The individual peptides were coated at a concentration of 1 microgram per milliliter. For purposes of comparison, mixtures A and B were also coated directly onto the wells of a microtiter plate. Samples from HIV-1, HIV-2, and HCV-seropositive donors were tested and compared to sera from seronegative blood donors. A cut-off absorbance value of 0.250 was used to determine whether a reaction was positive or negative. Absorbance values equal or greater than 0.250 were considered positive while absorbance values below this value were considered negative.
A spacer consisting of two glycine residues was added to the amino terminus.

[2] = system: antibodies in antisera from HIV-2 infected persons; test: ELISA with HIV-2 antibody-positive sera (biotinylated peptides on streptavidin- or avidin-coated plates, unbiotinylated peptides coated directly)
Protocol: as §1, §2, §3, §4, §5
The biotinylated peptides were loaded onto microtiter plates which had been coated with streptavidin. Antibody binding to these peptides was compared to antibody binding to the unibiotinylated peptides which were coated directly onto microtiter plates. It is evident that the biotinylated peptides from the HIV-1 or HIV-2 transmembrane proteins bound to streptavidin are recognized very well by antisera from HIV-1 or HIV-2 infected persons respectively. This is in contrast to the unbiotinylated versions of these peptides coated directly onto the polystyrene plates.
as §6
Two glycine residues were added at the N-terminus of each peptide to serve as a spacer and a biotin was coupled to the α-amino group of the resulting N-terminal glycine. The peptides were bound to streptavidin and coated in the wells of microwell plates. HIV-2 antibody-positive sera were used to evaluate these two peptides in an ELISA.

[3] = system: HIV-1 anti-V3 loop antibodies in sera; test: Line immunoassay (LIA) with HIV-1 gp120 V3 loop peptides; settings: for recognition of peptide, % of sera: Table 15
Excerpt: In order to determine the general diagnostic value of the V3 loop region of gp120, nine peptides derived from this region of nine different HIV-1 isolates were synthesized and included in a LIA. All nine peptides were provided with a Gly-Gly spacer and an N-terminal biotin. The aligned peptides (one-letter amino acid code) sequences are as follows: (SEQ ID NOs: 154-162, respectively)
The peptides were mixed with streptavidin in a slight molar excess over biotin binding sites and the peptide:streptavidin complexes were separated from unbound material over Sephadex G-25. Material eluting in the void volume was used in the preparation of the LIA.
A total of 332 sera were tested which had been obtained from various geographical regions. […] The reactions of the various lines were evaluated as positive (i) or negative (o) (data not shown).
In total, 307 of the 332 sera gave a reaction to at least one peptide on the V3-loop LIA. […] The total number of positive sera tested was therefore 326. […] There were, however, significant geographical differences.

[4] = Table 8, serum 3990 (HIV-1), Avidin
[5] = Table 8, serum DV (HIV-1), Avidin
[6] = Table 8, serum PL (HIV-1), Avidin
[7] = Table 8, serum YS (HIV-1), Avidin
[8] = Table 8, serum 1400 (HIV-2), Avidin
[9] = Table 8, serum AG (HIV-2), Avidin
[10] = Table 14, HIV-V3 positive sera, 307
[11] = Table 14, gp120 positive sera, COUNT 326

Bio-Gly-Gly-Gly-Ile-Trp-Gly-Cys-Ser-Gly-Lys-Leu-Ile-Cys-NH2 (Biotin-GGGIWGCSGKLIC-NH2; cysteine pairing not given here) [TM-HIV-1 Bio]
optical density (450 nm) ([1]; Table 1, serum 0724, HIV-1 positive): 2.570
optical density (450 nm) ([1]; Table 1, serum PL, HIV-1 positive): 1.559
optical density (450 nm) ([1]; Table 1, serum VE, HIV-1 positive): 2.551
optical density (450 nm) ([1]; Table 1, serum YEMO, HIV-1 positive): 2.357
optical density (450 nm) ([1]; Table 1, serum mm, HIV-1 positive): 2.579
optical density (450 nm) ([1]; Table 6, serum 0369/87, HIV positive): 2.042
optical density (450 nm) ([1]; Table 6, serum 0724, HIV positive): 2.291
optical density (450 nm) ([1]; Table 6, serum 1164, HIV positive): 1.919
optical density (450 nm) ([1]; Table 6, serum 1252, HIV positive): 2.356
optical density (450 nm) ([1]; Table 6, serum 2049, HIV positive): 2.058
optical density (450 nm) ([1]; Table 6, serum 3990, HIV positive): 1.870
optical density (450 nm) ([1]; Table 6, serum 4436, HIV positive): 2.110
optical density (450 nm) ([1]; Table 6, serum 4438, HIV positive): 1.697
optical density (450 nm) ([1]; Table 6, serum DV, HIV positive): 1.579
optical density (450 nm) ([1]; Table 6, serum MM, HIV positive): 2.308
optical density (450 nm) ([1]; Table 6, serum OOST 6, HIV positive): 2.003
optical density (450 nm) ([1]; Table 6, serum OOST 7, HIV positive): 2.027
optical density (450 nm) ([1]; Table 6, serum OOST 8, HIV positive): 2.237
optical density (450 nm) ([1]; Table 6, serum OOST 9, HIV positive): 2.222
optical density (450 nm) ([1]; Table 6, serum PL, HIV positive): 1.849
optical density (450 nm) ([1]; Table 6, serum VCM, HIV positive): 2.263
optical density (450 nm) ([1]; Table 6, serum VE, HIV positive): 2.240
optical density (450 nm) [1, 4]: 1.602
optical density (450 nm) [1, 5]: 1.329
optical density (450 nm) [1, 6]: 1.974
optical density (450 nm) [1, 7]: 0.046
optical density (450 nm) ([2]; Table 1, serum 53-3, HIV-2 positive): 0.000
optical density (450 nm) ([2]; Table 1, serum 1400, HIV-2 positive): 0.000
optical density (450 nm) ([2]; Table 1, serum AG, HIV-2 positive): 0.000
optical density (450 nm) [2, 8]: 0.051
optical density (450 nm) [2, 9]: 0.054

Bio-Gly-Gly-Tyr-Asn-Lys-Arg-Lys-Arg-Ile-His-Ile-Gly-Pro-Gly-Arg-Ala-Phe-Tyr-Thr-Thr-Lys-Asn-Ile-Ile-Gly-NH2 (Biotin-GGYNKRKRIHIGPGRAFYTTKNIIG-NH2) [V3-mn Bio]
optical density (450 nm) ([1]; Table 2, sample 266): 2.591
optical density (450 nm), off scale ([1]; Table 2, sample 3990): overflow* (Absorbance value greater than 3.000)
optical density (450 nm) ([1]; Table 2, sample 4436): 2.268
optical density (450 nm) ([1]; Table 2, sample 4438): 2.554
optical density (450 nm) ([1]; Table 2, sample DV): 2.881
optical density (450 nm) ([1]; Table 2, sample MM): 2.542
optical density (450 nm), off scale ([1]; Table 2, sample OOST 4): overflow* (Absorbance value greater than 3.000)
optical density (450 nm) ([1]; Table 2, sample OOST 6): 2.355
optical density (450 nm), off scale ([1]; Table 2, sample OOST 8): overflow* (Absorbance value greater than 3.000)
optical density (450 nm) ([1]; Table 2, sample PL): 2.351
optical density (450 nm), off scale ([1]; Table 2, sample VE): overflow* (Absorbance value greater than 3.000)
optical density (450 nm) ([1]; Table 2, sample YS): 2.784
optical density (450 nm) ([1]; Table 3, serum 3990, peptide bound to avidin): 1.854
optical density (450 nm) ([1]; Table 3, serum 3990, peptide bound to streptavidin): 1.391
optical density (450 nm) ([1]; Table 3, serum 4436, peptide bound to avidin): 1.519
optical density (450 nm) ([1]; Table 3, serum 4436, peptide bound to streptavidin): 0.596
optical density (450 nm) ([1]; Table 3, serum DV, peptide bound to avidin): 1.748
optical density (450 nm) ([1]; Table 3, serum DV, peptide bound to streptavidin): 1.041
optical density (450 nm) ([1]; Table 3, serum PL, peptide bound to avidin): 0.983
optical density (450 nm) ([1]; Table 3, serum PL, peptide bound to streptavidin): 0.222
optical density (450 nm) ([1]; Table 3, serum VE, peptide bound to avidin): 1.908
optical density (450 nm) ([1]; Table 3, serum VE, peptide bound to streptavidin): 1.526
optical density (450 nm) ([1]; Table 3, serum YS, peptide bound to avidin): 1.721
optical density (450 nm) ([1]; Table 3, serum YS, peptide bound to streptavidin): 1.236
optical density (450 nm) [1, 4]: 2.319
optical density (450 nm) [1, 5]: 2.340
optical density (450 nm) [1, 6]: 1.321
optical density (450 nm) [1, 7]: 2.201
optical density (450 nm) [2, 8]: 0.055
optical density (450 nm) [2, 9]: 0.068
% Reactive [3, 10]: 90%
Total SUM (reactive sera), printed on the line COUNT [3, 10]: 275
% Reactive [3, 11]: 84%
Total SUM (reactive sera) [3, 11]: 275
recognition of peptide, % of sera ([3]; AFRICAN sera): 85%
recognition of peptide, % of sera ([3]; BRAZILIAN sera): 78%
recognition of peptide, % of sera ([3]; EUROPEAN sera): 97%

ETWKKPDYEPPVVHGCPLPP
optical density (450 nm) [1, 4]: 0.056
optical density (450 nm) [1, 5]: 0.047
optical density (450 nm) [1, 6]: 0.052
optical density (450 nm) [1, 7]: 0.049
optical density (450 nm) [2, 8]: 1.362
optical density (450 nm) [2, 9]: 0.058

IIPDREVLYREFDEMEECSQ
optical density (450 nm) [1, 4]: 0.066
optical density (450 nm) [1, 5]: 0.049
optical density (450 nm) [1, 6]: 0.056
optical density (450 nm) [1, 7]: 0.049
optical density (450 nm) [2, 8]: 0.052
optical density (450 nm) [2, 9]: 0.064

PQRKTKRNTNRRPQDVKFPG
optical density (450 nm) [1, 4]: 0.054
optical density (450 nm) [1, 5]: 0.047
optical density (450 nm) [1, 6]: 0.052
optical density (450 nm) [1, 7]: 0.048
optical density (450 nm) [2, 8]: 0.121
optical density (450 nm) [2, 9]: 0.081
